Where “and” joins values, the source holds several entries; their conditions need not be identical. Equal entries are not always repeated. Where two headings read alike, the source gives them in different places.
Legend:
Test in all cases: SelectScreen kinase assay
YES1 = YES1 (Homo sapiens, UniProt P07947)
Experimental: (§1) Selectivity profiling assays were performed by the Invitrogen SelectScreen™ Services. […] The concentration of ATP was selected to be equal to the KM, unless indicated otherwise.

HIPK2 = HIPK2 (Homo sapiens, UniProt Q9H2X6); details: for Inhibition at 1 µM (%): HIPK2, ZLYTE, ATP Km app
Experimental: as §1

SRPK1 = SRPK1 (Homo sapiens, UniProt Q96SB4)
Experimental: as §1

SLK = SLK (Homo sapiens, UniProt Q9H2G2)
Experimental: as §1

CASK = target: T1, CASK (Homo sapiens, UniProt O14936); details: for Inhibition at 1 µM (%): CASK, LanthaScreen Binding
T1 sequence (O14936 1-926): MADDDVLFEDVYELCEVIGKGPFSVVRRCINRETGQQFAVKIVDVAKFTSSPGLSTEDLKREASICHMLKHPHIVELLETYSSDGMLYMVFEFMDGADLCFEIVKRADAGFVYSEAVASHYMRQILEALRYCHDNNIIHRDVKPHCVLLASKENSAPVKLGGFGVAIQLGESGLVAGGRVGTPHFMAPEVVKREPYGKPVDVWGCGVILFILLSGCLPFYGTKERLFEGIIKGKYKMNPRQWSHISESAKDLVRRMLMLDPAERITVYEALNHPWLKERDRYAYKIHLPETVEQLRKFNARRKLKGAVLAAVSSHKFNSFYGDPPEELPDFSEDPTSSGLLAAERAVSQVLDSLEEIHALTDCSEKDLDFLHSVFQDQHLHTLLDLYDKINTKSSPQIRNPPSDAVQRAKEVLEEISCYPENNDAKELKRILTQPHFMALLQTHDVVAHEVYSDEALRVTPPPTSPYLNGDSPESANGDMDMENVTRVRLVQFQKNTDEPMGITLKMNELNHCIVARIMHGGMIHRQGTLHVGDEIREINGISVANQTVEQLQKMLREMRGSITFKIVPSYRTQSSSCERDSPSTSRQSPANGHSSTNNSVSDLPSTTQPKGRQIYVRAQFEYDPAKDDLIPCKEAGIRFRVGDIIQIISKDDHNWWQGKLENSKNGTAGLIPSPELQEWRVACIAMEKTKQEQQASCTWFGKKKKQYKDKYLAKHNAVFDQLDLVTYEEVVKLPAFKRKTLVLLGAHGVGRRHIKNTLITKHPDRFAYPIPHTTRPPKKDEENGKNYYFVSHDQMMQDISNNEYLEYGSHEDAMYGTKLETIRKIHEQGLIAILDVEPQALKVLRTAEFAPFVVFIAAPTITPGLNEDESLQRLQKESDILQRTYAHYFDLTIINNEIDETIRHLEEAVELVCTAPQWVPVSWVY
Experimental: as §1

BTK = BTK (Homo sapiens, UniProt Q06187)
Experimental: as §1

PTK2B (FAK2) = PTK2B (FAK2) (Homo sapiens, UniProt Q14289)
Sequence of PTK2B (FAK2) (Q14289 whole entry): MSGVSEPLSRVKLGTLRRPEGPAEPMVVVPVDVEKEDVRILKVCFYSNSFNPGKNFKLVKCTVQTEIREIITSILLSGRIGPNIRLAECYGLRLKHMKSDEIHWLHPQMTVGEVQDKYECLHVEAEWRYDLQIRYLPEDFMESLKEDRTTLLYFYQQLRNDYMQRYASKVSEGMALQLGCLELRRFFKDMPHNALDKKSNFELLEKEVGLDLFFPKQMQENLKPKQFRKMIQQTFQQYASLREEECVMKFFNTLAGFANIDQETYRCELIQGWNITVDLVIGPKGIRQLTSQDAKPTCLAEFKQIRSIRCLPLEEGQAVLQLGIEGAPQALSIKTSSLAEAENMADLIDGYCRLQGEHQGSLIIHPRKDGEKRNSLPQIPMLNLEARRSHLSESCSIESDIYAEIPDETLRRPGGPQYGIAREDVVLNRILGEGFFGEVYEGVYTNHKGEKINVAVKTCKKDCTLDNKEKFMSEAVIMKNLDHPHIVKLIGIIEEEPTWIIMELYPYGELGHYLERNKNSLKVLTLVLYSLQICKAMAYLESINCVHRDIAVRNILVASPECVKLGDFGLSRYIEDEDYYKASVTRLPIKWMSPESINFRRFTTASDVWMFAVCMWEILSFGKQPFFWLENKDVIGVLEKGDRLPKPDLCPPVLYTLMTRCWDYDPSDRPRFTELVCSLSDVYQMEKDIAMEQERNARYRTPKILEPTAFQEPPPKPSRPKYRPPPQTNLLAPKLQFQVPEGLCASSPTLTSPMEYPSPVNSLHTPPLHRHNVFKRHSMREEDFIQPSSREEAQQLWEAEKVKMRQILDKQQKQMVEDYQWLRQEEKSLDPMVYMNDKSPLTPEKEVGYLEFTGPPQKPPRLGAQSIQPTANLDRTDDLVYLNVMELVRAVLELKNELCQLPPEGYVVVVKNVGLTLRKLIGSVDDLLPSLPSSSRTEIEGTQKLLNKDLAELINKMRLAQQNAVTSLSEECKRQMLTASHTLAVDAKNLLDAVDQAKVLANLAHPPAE
Experimental: as §1

HIPK1 (Myak) = HIPK1 (Myak) (Homo sapiens, UniProt Q86Z02); details: for Inhibition at 1 µM (%): HIPK1 (Myak), ZLYTE, ATP Km app
Sequence of HIPK1 (Myak) (Q86Z02 whole entry): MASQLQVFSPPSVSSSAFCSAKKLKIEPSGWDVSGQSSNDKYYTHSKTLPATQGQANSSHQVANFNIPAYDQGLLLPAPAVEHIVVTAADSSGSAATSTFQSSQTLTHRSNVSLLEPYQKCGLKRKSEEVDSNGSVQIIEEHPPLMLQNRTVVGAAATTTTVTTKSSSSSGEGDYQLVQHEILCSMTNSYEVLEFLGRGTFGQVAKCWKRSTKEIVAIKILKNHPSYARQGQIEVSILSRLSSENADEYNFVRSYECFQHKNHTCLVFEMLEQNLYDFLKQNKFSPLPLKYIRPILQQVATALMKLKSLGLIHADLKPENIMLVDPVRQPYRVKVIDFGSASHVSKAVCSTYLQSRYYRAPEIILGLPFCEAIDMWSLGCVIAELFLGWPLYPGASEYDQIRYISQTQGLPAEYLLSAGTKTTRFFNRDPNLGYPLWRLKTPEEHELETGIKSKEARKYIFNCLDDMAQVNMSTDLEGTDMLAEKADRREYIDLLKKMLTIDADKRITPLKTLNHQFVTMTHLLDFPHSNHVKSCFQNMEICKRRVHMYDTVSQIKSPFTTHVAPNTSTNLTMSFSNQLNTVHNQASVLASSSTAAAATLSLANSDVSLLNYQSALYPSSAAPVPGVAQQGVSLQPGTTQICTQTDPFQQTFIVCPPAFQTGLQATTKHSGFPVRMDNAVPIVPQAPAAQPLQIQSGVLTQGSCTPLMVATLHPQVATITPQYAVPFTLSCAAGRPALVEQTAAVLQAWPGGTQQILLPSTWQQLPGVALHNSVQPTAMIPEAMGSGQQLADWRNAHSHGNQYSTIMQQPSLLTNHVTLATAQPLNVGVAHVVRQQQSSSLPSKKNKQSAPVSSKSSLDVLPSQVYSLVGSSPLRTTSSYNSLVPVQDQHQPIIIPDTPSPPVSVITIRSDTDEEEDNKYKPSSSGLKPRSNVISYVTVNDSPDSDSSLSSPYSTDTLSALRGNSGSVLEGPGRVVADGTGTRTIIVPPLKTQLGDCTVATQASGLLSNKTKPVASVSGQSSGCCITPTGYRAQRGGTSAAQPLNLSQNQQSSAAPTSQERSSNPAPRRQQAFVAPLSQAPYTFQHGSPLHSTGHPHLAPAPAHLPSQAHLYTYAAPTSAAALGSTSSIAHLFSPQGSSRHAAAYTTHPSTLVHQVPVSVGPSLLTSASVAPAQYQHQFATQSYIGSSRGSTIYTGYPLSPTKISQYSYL
Experimental: as §1

STK4 (MST1) = STK4 (MST1) (Homo sapiens, UniProt Q13043)
Sequence of STK4 (MST1) (Q13043 whole entry): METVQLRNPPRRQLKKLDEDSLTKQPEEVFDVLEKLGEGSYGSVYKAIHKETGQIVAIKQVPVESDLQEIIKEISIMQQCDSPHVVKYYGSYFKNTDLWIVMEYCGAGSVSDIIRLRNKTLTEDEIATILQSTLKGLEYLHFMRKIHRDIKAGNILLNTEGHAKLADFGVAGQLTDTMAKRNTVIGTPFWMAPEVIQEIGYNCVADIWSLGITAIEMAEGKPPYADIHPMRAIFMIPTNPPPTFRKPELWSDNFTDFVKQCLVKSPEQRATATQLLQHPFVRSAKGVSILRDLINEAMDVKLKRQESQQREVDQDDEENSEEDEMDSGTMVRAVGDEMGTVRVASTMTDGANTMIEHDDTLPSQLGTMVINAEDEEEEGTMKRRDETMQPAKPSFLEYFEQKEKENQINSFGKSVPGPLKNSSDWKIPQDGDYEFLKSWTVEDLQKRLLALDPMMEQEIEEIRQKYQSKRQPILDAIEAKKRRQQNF
Experimental: as §1

MAP2K6 (MKK6) = target: T2, MAP2K6 (MKK6) (Homo sapiens, UniProt P52564)
T2 sequence (P52564 1-334): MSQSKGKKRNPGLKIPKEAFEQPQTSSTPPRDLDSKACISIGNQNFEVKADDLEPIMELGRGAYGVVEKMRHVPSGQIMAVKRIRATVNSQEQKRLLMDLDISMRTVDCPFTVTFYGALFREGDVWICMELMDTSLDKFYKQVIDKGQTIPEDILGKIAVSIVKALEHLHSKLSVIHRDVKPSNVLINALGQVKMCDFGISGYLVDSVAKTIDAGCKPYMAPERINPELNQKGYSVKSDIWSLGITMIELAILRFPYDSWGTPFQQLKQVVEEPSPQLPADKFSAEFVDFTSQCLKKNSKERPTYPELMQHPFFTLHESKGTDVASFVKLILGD
Experimental: as §1

PRKCI (PKC iota) = target: T3, PRKCI (PKC iota) (Homo sapiens, UniProt P41743); details: for Inhibition at 1 µM (%): PRKCI (PKC iota), ZLYTE, ATP Km app
T3 sequence (P41743 1-596): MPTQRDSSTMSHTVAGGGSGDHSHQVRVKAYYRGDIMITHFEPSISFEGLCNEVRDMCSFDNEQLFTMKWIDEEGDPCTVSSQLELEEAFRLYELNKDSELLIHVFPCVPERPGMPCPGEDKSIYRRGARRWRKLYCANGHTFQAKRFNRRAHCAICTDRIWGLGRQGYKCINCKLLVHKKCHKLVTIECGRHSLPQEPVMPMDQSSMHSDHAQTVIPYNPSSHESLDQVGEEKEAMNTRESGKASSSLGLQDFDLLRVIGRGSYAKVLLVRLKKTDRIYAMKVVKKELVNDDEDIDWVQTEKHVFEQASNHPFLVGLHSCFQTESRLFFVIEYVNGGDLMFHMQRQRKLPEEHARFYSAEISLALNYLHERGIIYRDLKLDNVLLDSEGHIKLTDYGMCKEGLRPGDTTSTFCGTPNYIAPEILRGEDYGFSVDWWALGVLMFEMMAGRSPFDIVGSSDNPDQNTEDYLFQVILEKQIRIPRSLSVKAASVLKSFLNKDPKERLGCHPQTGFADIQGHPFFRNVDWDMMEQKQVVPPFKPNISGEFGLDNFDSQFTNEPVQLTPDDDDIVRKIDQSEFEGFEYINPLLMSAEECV
Experimental: as §1

[1] = 1 µM, ZLYTE, ATP Km app, listed as WEL028, 1 µM
[2] = 1 h, 1 μM WEL028, 1 h preincubation
[3] = read-out: Inhibition at 1 µM (%), 1 µM, ZLYTE, ATP Km app

Sequence of YES1 (P07947 whole entry): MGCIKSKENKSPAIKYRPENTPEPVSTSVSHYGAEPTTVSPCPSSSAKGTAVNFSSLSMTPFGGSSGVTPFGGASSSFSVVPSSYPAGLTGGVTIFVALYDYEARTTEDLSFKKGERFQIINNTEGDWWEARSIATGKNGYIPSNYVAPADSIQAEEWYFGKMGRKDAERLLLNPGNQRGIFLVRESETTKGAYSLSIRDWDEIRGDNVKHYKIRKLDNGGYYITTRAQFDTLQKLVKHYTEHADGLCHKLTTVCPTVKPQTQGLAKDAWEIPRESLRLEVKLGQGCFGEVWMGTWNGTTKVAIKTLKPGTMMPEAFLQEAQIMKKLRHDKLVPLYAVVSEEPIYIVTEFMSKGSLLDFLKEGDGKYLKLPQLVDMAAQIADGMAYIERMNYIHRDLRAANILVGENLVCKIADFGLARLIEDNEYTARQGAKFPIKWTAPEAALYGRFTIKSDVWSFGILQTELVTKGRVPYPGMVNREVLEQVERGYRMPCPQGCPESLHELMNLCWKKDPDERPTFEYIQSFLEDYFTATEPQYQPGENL
Sequence of HIPK2 (Q9H2X6 whole entry): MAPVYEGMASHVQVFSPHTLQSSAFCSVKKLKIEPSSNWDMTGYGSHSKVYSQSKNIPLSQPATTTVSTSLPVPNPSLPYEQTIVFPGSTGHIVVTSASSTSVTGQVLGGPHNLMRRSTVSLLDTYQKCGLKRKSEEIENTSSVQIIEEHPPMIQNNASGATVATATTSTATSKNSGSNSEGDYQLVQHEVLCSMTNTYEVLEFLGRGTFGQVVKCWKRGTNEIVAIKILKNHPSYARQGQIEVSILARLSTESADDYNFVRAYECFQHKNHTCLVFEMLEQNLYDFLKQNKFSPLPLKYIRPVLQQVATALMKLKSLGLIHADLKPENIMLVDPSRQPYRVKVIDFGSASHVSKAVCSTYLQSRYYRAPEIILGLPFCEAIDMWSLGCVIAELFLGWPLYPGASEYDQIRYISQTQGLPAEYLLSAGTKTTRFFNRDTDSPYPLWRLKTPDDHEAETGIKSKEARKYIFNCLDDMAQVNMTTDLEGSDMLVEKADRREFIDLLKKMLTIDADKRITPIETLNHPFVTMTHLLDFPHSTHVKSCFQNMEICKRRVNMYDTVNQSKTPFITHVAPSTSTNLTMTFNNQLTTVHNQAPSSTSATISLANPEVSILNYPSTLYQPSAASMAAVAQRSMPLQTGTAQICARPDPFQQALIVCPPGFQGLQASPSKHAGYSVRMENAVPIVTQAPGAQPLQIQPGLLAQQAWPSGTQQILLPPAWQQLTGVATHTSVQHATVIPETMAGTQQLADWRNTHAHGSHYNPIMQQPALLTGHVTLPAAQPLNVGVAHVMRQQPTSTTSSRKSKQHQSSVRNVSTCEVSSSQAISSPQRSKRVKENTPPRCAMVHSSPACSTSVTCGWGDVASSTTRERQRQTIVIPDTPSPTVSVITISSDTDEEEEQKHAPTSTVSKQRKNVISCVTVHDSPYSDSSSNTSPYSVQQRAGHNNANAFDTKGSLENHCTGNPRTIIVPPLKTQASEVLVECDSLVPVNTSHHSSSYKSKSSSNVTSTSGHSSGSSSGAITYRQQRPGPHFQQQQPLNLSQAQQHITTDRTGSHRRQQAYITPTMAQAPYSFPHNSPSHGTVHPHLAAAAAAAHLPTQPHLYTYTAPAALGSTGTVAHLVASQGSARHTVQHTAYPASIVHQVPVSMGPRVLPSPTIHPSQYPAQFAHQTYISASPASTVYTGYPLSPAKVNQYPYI
Sequence of SRPK1 (Q96SB4 whole entry): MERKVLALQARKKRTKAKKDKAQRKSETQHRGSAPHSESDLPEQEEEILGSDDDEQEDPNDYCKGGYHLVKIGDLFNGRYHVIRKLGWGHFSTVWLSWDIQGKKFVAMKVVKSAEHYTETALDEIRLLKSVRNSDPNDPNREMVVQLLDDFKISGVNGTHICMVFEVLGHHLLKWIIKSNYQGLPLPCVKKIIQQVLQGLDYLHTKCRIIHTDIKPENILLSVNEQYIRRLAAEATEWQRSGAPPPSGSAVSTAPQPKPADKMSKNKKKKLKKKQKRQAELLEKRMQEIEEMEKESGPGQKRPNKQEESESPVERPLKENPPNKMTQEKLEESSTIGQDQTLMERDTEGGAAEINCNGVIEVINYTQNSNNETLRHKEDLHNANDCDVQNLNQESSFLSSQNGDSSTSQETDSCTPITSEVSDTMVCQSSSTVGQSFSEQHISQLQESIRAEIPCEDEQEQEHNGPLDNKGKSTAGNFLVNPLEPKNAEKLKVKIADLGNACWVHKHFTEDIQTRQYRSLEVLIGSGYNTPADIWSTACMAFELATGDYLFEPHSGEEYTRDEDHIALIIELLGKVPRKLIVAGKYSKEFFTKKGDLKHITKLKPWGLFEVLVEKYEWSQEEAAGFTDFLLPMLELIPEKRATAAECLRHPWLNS

`C#CCOc1ccc(Nc2ncc(Cl)c(Nc3ccccc3NC(=O)C=C)n2)c(OC)c1` [Compound 6] was tested, and the “Inhibition at 1 µM (%)” value (YES1; [1]) was 10%, the inhibition at 1 µM (YES1; [2]) was 8% and the inhibition at 1 µM (YES1; [3]) was 7%. The inhibition at 1 µM (HIPK2; [2]) was 1%, the “Inhibition at 1 µM (%)” value (HIPK2) was 2% and the “Inhibition at 1 µM (%)” value (HIPK2; listed as WEL028, 1 µM) was 0%. For the same compound, the “Inhibition at 1 µM (%)” value (SRPK1; [1]) was 2% and 11%, the inhibition at 1 µM (SRPK1; [2]) was 7% and the “Inhibition at 1 µM (%)” value (SLK; 1 µM, LanthaScreen Binding, listed as WEL028, 1 µM) was 1% and 7%. The inhibition at 1 µM (SLK; [2]) was 4%, the inhibition at 1 µM (CASK; [2]) was -7% and the “Inhibition at 1 µM (%)” value (CASK) was -11%. For the same compound, the “Inhibition at 1 µM (%)” value (CASK; listed as WEL028, 1 µM) was -4%, the “Inhibition (%)” value (BTK; 1 μM WEL028, 1 h preincubation) was 11% and the “Inhibition at 1 µM (%)” value (BTK; BTK, 1 µM, ZLYTE, ATP Km app) was 17%. The “Inhibition at 1 µM (%)” value (PTK2B (FAK2); [1]) was 37%, the inhibition at 1 µM (PTK2B (FAK2); [2]) was 34% and the inhibition at 1 µM (PTK2B (FAK2); [3]) was 32%. For the same compound, the inhibition at 1 µM (HIPK1 (Myak); [2]) was -4%, the “Inhibition at 1 µM (%)” value (HIPK1 (Myak)) was -2% and the “Inhibition at 1 µM (%)” value (HIPK1 (Myak); listed as WEL028, 1 µM) was -6%. For the same compound, the “Inhibition (%)” value (STK4 (MST1); 1 μM WEL028, 1 h preincubation) was 3%, the “Inhibition at 1 µM (%)” value (STK4 (MST1); 1 µM, ZLYTE, ATP Km app) was 11% and the IC50 (MAP2K6 (MKK6)) was 316 nM. It also gave an inhibition at 1 µM (MAP2K6 (MKK6); [2]) of 73%, an inhibition at 10 µM (MAP2K6 (MKK6); 1 h, log[inhibitor] (M) -5.00, ZLYTE, ATP 100) of 92% and an inhibition at 3.311 µM (MAP2K6 (MKK6); 1 h, log[inhibitor] (M) -5.48, ZLYTE, ATP 100) of 96%. For the same compound, the inhibition at 1.122 µM (MAP2K6 (MKK6); 1 h, log[inhibitor] (M) -5.95, ZLYTE, ATP 100) was 80%, the inhibition at 0.3715 µM (MAP2K6 (MKK6); 1 h, log[inhibitor] (M) -6.43, ZLYTE, ATP 100) was 51% and the inhibition at 0.123 µM (MAP2K6 (MKK6); 1 h, log[inhibitor] (M) -6.91, ZLYTE, ATP 100) was 29%. The inhibition at 0.0138 µM (MAP2K6 (MKK6); 1 h, log[inhibitor] (M) -7.86, ZLYTE, ATP 100) was 11%, the inhibition at 0.001514 µM (MAP2K6 (MKK6); 1 h, log[inhibitor] (M) -8.82, ZLYTE, ATP 100) was 4% and the Apparent fold selectivity (MAP2K6 (MKK6); IC50 on that kinase divided by IC50 on FES^S700C) was 68 fold. The inhibition at 1 µM (MAP2K6 (MKK6); read-out: Inhibition at 1 µM (%), MAP2K6 (MKK6), 1 µM, ZLYTE, ATP 100) was 73%, the inhibition at 1 µM (PRKCI (PKC iota); [2]) was 10% and the “Inhibition at 1 µM (%)” value (PRKCI (PKC iota)) was 15%. For the same compound, the “Inhibition at 1 µM (%)” value (PRKCI (PKC iota); listed as WEL028, 1 µM) was 5%.
